From publication PMC12366525, “Characterization of allosteric modulators that disrupt androgen receptor co-activator protein-protein interactions to alter transactivation–Drug leads for metastatic castration resistant prostate cancer” (SLAS discovery : advancing life sciences R & D, 2023)
“Also recorded” adds a separate entry of the source.

What was measured:
AR = molecular target: T1, AR (Homo sapiens, UniProt P10275, T878A); experiment: Western blotting cellular thermal shift assay for AR in C4–2 cells; format: cell-based; conditions: 1 h at 37 °C prior to heat shock at 46 °C, hits and enzalutamide 20 μM, DHT 10 nM
T1 construct: DHT-induced full length AR directed TA; endogenous in cells; host or cells: C4–2 castration resistant prostate cancer cells
T1 sequence (P10275 1-920 T878A): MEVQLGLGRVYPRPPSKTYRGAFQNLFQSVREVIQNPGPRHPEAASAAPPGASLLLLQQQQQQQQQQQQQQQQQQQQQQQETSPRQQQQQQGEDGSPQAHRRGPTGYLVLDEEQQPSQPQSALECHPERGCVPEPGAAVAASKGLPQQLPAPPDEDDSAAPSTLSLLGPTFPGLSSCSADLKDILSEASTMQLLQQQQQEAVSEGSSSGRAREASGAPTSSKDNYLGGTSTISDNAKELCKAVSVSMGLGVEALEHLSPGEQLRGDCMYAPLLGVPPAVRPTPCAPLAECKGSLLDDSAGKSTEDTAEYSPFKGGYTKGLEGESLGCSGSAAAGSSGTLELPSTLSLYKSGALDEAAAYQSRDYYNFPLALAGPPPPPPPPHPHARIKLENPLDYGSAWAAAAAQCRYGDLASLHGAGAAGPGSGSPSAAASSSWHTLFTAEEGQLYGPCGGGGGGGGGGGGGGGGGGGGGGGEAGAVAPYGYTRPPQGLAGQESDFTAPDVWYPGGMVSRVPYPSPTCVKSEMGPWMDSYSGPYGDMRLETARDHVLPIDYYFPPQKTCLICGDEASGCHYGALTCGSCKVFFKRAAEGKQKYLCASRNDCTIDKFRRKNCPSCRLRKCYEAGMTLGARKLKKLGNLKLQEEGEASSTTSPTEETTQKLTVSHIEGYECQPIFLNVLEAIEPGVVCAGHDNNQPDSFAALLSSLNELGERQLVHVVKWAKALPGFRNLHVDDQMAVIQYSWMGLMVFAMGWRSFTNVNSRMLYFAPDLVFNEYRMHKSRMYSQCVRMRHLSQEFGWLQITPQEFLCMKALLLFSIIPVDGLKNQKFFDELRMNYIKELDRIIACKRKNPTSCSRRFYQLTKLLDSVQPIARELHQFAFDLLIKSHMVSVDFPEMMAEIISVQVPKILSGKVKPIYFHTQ
Protocol: C4–2 cells were harvested by trypsinization, washed 1x by centrifugation at 270 × g for 5 min and resuspension in PBS, counted, centrifugated at 270 × g for 5 min and resuspended at 7 × 10 [6] cells per mL in Opti-MEM medium (Gibco, Gaithersburg, MD). 50 μL of C4–2 cell suspension (3.5 × 10 [5] cells) were then transferred to PCR tubes that were placed in a T-100 thermocycler (BioRad, Hercules, CA) and a 2 °C interval temperature step gradient from 37 °C to 53 °C was applied. Cells were maintained at each step of the temperature gradient for 5 min and then tubes were withdrawn and placed on ice. 50 μL of cell lysis buffer, 500 mM NaCl, 1% NP-40, 1x protease inhibitor cocktail in PBS were added to the heat shocked cell suspensions in PCR tubes and placed on ice for an additional 30 min. […] 45 μL of cell lysis supernatants were mixed with 15 μL of 5x SDS-PAGE sample buffer and placed in a heat block at 100 °C for 5 min. The protein constituents of heat shocked C4–2 cell lysis supernatants were separated by SDS-PAGE on 8% separating gels, transferred to nitrocellulose membranes that were blocked for 1 h at room temperature in 5% non-fat milk in TBST, and then probed overnight at 4 °C with a 1:1000 dilution of either rabbit anti-AR (Cell Signaling, Danvers, MA) or rabbit anti-TIF2 (Bethyl Laboratories, Waltham, MA) primary antibodies in TBST containing 5% non-fat milk. Membranes were then washed 3x in TBST buffer for 10 min, then incubated with a 1:10,000 dilution of the goat anti-rabbit IgG HRP conjugated secondary antibody (Invitrogen, Carlsbad,CA) in TBST containing 5% non-fat milk for 1 h at room temperature. Western blots were then washed 3x in TBST buffer and developed with Pierce ECL western blotting substrate. Images of ECL western blots were acquired on an iBright 1500 imaging system and quantified using the iBright image analysis software.

HEK 293 cells = experiment: M2H viability counter screen; format: cell-based; conditions: cytotoxicity counter screen; read-out: M2H viability CS GI50

Structure (SMILES)	Effect on AR thermal stability, western blot CETSA (AR)	GI50 (HEK 293 cells) [µM]
Cc1ccccc1-c1cc(O)c2c(c1)CN(c1nc(C(N)=O)cs1)CCO2 [S1–1]	did not stabilize AR, but blocked DHT-enhanced AR stabilization; also recorded: only partially blocked DHT-enhanced AR stabilization	–
Cc1ccccc1-c1cc(O)c2c(c1)CN(c1nccs1)CCO2 [S1–3]	–	> 100
Cc1nsc(NC(=O)N2CCC(Sc3ccccc3C)CC2)n1 [S2–6]	did not stabilize AR, but blocked DHT-enhanced AR stabilization; also recorded: blocked DHT-enhanced AR thermal stabilization below DMSO baseline levels	–
Cc1c(-c2ccccc2F)[nH]c2ccc(CNC(=O)CCc3cn[nH]c3)cc12 [S3–11]	did not stabilize AR, but blocked DHT-enhanced AR stabilization; also recorded: only partially blocked DHT-enhanced AR stabilization	–
